From patent US6355665B1, “1H-4(5)-substituted imidazole derivatives, their preparation and their use as histamine H3 receptor ligands” (James Black Foundation Limited, priority 1997, dated 2002)

What was measured:
Histamine H3 receptor [1] = target: T1, Histamine H3 receptor (Cavia porcellus, UniProt Q9JI35); assay: Histamine H3 radioligand binding assay, guinea pig cortex ([3H]-R-α-methylhistamine); set-up: The cortex was dissected, weighed and homogenised in ice-cold 20 mM Hepes-NaOH buffer; from tissue; host or cells: guinea pig cerebral cortex membranes; settings: guinea pig cortex membranes; [3H]-R-α-methylhistamine 0.1 nM; typical variance ±0.12 log units; read-out: pKI (binding assay) - cortex (converted)
T1 sequence (Q9JI35 whole entry): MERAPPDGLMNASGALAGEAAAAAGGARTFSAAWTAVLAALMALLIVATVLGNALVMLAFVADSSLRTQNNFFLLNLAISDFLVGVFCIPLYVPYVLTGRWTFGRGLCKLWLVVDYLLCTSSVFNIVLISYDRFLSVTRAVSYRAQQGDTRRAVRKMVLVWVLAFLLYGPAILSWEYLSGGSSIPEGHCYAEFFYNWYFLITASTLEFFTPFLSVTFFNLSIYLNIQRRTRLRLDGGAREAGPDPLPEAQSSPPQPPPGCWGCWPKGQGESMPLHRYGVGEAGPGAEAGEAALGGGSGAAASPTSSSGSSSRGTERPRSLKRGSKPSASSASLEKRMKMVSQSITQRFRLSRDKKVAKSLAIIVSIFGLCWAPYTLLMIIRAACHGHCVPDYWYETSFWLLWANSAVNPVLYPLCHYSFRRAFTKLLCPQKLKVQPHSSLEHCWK
Experimental: Histamine H3 Radioligand Binding Assay—Guinea Pig Cortex
Male Dunkin Hartley guinea pigs (200-300 g) were used. The whole brain was removed and immediately placed in ice-cold 20 mM Hepes-NaOH buffer (pH7.4 at 21±3° C.). The cortex was dissected, weighed and homogenised in ice-cold 20 mM Hepes-NaOH buffer (pH7.4 at 21±3° C.) (50 ml/guinea-pig cortex) using a polytron (Kinematica AG; PT-DA 3020/2TS, 3×3 s). The homogenate was centrifuged at 100×g for 5 min and the supernatants pooled and stored at 4° C. The pellets were rehomogenised in fresh ice-cold buffer (80 ml) and recentrifuged (100×g for 5 min). The supernatants were pooled and pellets rehomogenised and recentrifuged (100×g for 5 min). All supernatants were pooled and centrifuged at 39,800×g for 12 min at 4° C. The final pellet was resuspended in 20 mM Hepes-NaOH buffer (pH7.4 at 21±3° C.) to a tissue concentration of 7.5 mg.ml^−1, using a teflon-in-glass homogeniser.
Incubation Conditions and Data Analysis
These were essentially identical to those used for the guinea pig ileum myenteric plexus assay described above, except that the final assay concentration of [^3H]-R-α-methylhistamine was 0.1 nM. Typical variance in this assay is ±0.12 log units.

Histamine H3 receptor [2] = target: T1, Histamine H3 receptor; assay: Histamine H3 radioligand binding assay, guinea pig ileum ([3H]-R-α-methylhistamine); set-up: The cortex was dissected, weighed and homogenised in ice-cold 20 mM Hepes-NaOH buffer; from tissue; host or cells: guinea pig cerebral cortex membranes; settings: guinea pig ileum longitudinal muscle myenteric plexus membranes; [3H]-R-α-methylhistamine 3 nM; typical variance ±0.12 log units; read-out: pKI (binding assay) - ileum (converted)
Experimental: Histamine H3 Radioligand Binding Assay—Guinea Pig Ileum
Male Dunkin Hartley guinea pigs (200-300 g) were used. The small intestine was rapidly removed (cut ^˜5 cm from caecum and 5 cm from stomach) and placed in ice-cold 20 mM Hepes-NaOH buffer (pH7.4 at 21±3° C.). The tissue was cut into ^˜10 cm segments, flushed through with ice-cold 20 mM Hepes-NaOH buffer and placed in a beaker containing fresh buffer at 4° C. 10 cm segments of ileum were threaded onto a glass pipette and the longitudinal muscle myenteric plexus was peeled away from the circular muscle using damp cotton-wool. Longitudinal muscle myenteric plexus was immediately placed in ice-cold Viaspan® solution (^˜100 ml for tissue from 3 guinea pigs) and placed in the refrigerator for 24 hours.
Pre-soaked tissue was weighed and minced with scissors. The tissue was then homogenised in Viaspan® using a polytron (Kinematica AG; PT-DA 3020/2TS, 3×^˜1-2 s). 50 ml of 500 mM Tris HCl (pH6.9 at 21±3° C.) was added to the tissue and the mixture centrifuged at 39,800×g for 12 min at 4° C. The supernatant was discarded and rehomogenised in 100 ml ice-cold 20 mM Hepes-NaOH buffer (pH7.4 at 21±3° C.) using a teflon-in-glass homogeniser (setting 10; 3×). The homogenate was recentrifuged at 39,800×g and the pellet resuspended in 20 mM Hepes-NaOH buffer (pH7.4 at 21±3° C.), to a tissue concentration of 50 mg.ml^−1, using a polytron (Brinkman, PT10, 3×^˜1 s).
Guinea pig ileum longitudinal muscle myenteric plexus membranes (400 μl) were incubated for 165 min at 21±3° C. in a final volume of 500 μl with 20 mM Hepes-NaOH buffer containing [^3H]-R-α-methylhistamine (50 μl; 3 nM) and competing compound. Total and non-specific binding of [^3H]-R-α-methylhistamine were defined using 50 μl of buffer and 50 μl of 10 μM thioperamide, respectively. The assay was terminated by rapid filtration through Whatman GF/B filters, presoaked (2 hr) in 0.1% polyethyleneimine, using a Brandell Cell Harvester. The filters were washed (3×3 ml) with ice-cold 50 mM Tris-HCl (pH6.9 at 21±3° C.), transferred into scintillation vials, 5 ml liquid scintillation cocktail was added and after 4 hours the bound radioactivity was determined by counting (4 min) in a Beckman liquid scintillation counter.
Data are analysed using GraphPad prism and the general equation for a competition curve with variable Hill slope (nH). [formula]
X is the log concentration of competing compound,
Y is the binding obtained at each concentration of X,
pIC50 is the […] required to compete for half of the specific binding.
The IC50 is converted to the K1 using the Cheng Prusoff equation,
IC50 is the concentration of competitor required to compete for half the specific binding,
L is the radioligand concentration used,
KD is the equilibrium dissociation constant for the radioligand determined by saturation experiments.
Typical variance in this assay is ±0.12 log units.

Histamine H3 receptor [3] = target: T1, Histamine H3 receptor; assay: ileal longitudinal muscle, myenteric plexus functional assay (rightward shift of R-(α)-methylhistamine E/[A] curves, Schild); assay type: cell-based; set-up: the longitudinal muscle layer and adhering myenteric plexus was teased away; from tissue; host or cells: guinea pig ileal longitudinal muscle with myenteric plexus (organ bath); settings: guinea pig ileum longitudinal muscle myenteric plexus, electrically stimulated; antagonism of R-(α)-methylhistamine; typical variance ±0.15 log units; read-out: pKB (functional assay) - ileum (converted)
Experimental: The biological activity of the compounds of the examples was measured using the ileal longitudinal muscle, myenteric plexus assay described by Paton and Aboo Zar (J. Physiol. 1968, 194, 13-33). Male Dunkin-Hartley guinea pigs (250-300 g) were employed. Briefly, a 50 cm portion of ileum proximal to the caecum was removed, after discarding the terminal 20 cm. Ileal segments (3 cm) were cleaned by passing Krebs-Henseleit buffer containing 3 μM mepyramine gently through the ileum using a Pasteur pipette (size: 13.8 cm length, 0.65 cm diameter). To avoid unnecessary damage to the tissue, Krebs-Henseleit buffer was passed through the ileal segment, while it was lying horizontally on a petri dish. Therefore, the ileum was not over-distended and the buffer flowed through with ease. Each segment was then passed over a Pasteur pipette and the longitudinal muscle layer and adhering myenteric plexus was teased away using moist cotton wool, by stroking tangentially away from the mesenteric attachment. The tissues were suspended in 20 ml organ baths containing Krebs-Henseleit buffer at 37±1° C. and gassed with 95% CO2/5% O2. The tissues were ligated to two parallel stainless steel wires, situated between two platinum electrodes (0.76 cm length, 0.06 cm diameter). All measurements were recorded isometrically (Grass FTO3 transducer). Following an initial loading tension of 1 g, the tissues were stimulated with electrical pulses at a frequency of 0.1 Hz and a pulse duration of 0.5 msec, as described by Kosterlitz & Watt (Br. J. Pharmacol. 1968, 266-276). Initially, the tissues were stimulated at supramaximal (1.3 fold times maximal) voltage for a period of 30 min and then the tissues were washed and re-stimulated. A “sighter dose” of the selective histamine H3-receptor agonist, R-(α)-methylhistamine (0.3 μM) (Arrang et al. Nature, 1987, 117-123), was administered. Upon generation of response, the “sighter dose” was removed from the tissues by “washout” (6 washes over 60 min) and during this period the electrical stimulation was switched off. The tissues were then re-stimulated and allowed to stabilise prior to the addition of drug treatments, which were allocated on a randomised block basis to the organ baths. Following the incubation period, a single cumulative E/[A] curve was obtained. The experimental E/[A] curve data was expressed as the percentage inhibition of the peak height of electrically-stimulated contraction. Antagonist affinity values were calculated from the degree of rightward shift of the R-(α)-methylhistamine E/[A] curves using Schild's methods (Arunlakshana & Schild Br. J. Pharmacol. 1959, 48-58). Typical variance in this assay is ±0.15 log units.

Ki (Histamine H3 receptor [1]) [nM] | Ki (Histamine H3 receptor [2]) [nM] | Kb (Histamine H3 receptor [3]) [nM] | Compound
2.63 | 1.86 | 3.47 | O=S(=O)(CCCCCc1c[nH]cn1)NCc1ccc(Cl)cc1 [Example 5, N-(4-Chlorobenzyl)-5-(1H-imidazol-4-yl)-1-pentanesulfonamide]
5.01 | 12.6 | 16.2 | O=S(=O)(CC(O)CCCc1c[nH]cn1)NCc1ccc(Cl)cc1 (centres unmarked) [Example 6, N-(4-Chlorobenzyl)-2-hydroxy-5-(1H-imidazol-4-yl)-1-pentanesulfonamide]
14.1 | 60.3 | 49 | O=S(=O)(CC(O)CCCc1c[nH]cn1)NCCc1ccc(Cl)cc1 (centres unmarked) [Example 12, N-(4-Chlorophenethyl)-2-hydroxy-5-(1H-imidazol-4-yl)-1-pentanesulfonamide]
4.47 | 10.2 | 7.76 | O=S(=O)(CCCCCc1c[nH]cn1)CCc1ccc(Cl)cc1 [Example 26, [5-(1H-Imidazol-4-yl)pentyl] 4-chlorophenethyl sulfone]
1.32 |  | 12.3 | NCC(CCCc1c[nH]cn1)CS(=O)(=O)NCc1ccc(Cl)cc1 (centres unmarked) [Example 38, 2-Aminomethyl-N-(4-chlorobenzyl)-5-(1H-imidazol-4-yl)-1-pentanesulfonamide]
2.95 |  | 24.5 | CNC(CCCc1c[nH]cn1)CS(=O)(=O)NCc1ccc(Cl)cc1 (centres unmarked) [Example 39, N-(4-Chlorobenzyl)-2-methylamino-5-(1H-imidazol-4-yl)-1-pentanesulfonamide]

More lines, now with the values behind:

Compound | Ki (Histamine H3 receptor [1]) [nM] | Ki (Histamine H3 receptor [2]) [nM] | Kb (Histamine H3 receptor [3]) [nM]
O=S(=O)(CCCCc1c[nH]cn1)NCc1ccc(Cl)cc1 [Example 1, N-(4-Chlorobenzyl)-4-(1H-imidazol-4-yl)-1-butanesulfonamide] | 2.63 | 8.51 | 8.71
O=S(=O)(/C=C/CCc1c[nH]cn1)NCc1ccc(Cl)cc1 [Example 3, (E)-N-(4-Chlorobenzyl)-4-(1H-imidazol-4-yl)-1-but-1-enesulfonamide] | 2.75 | 10.2 | 12.6
O=S(=O)(CCCCCc1c[nH]cn1)Cc1ccc(Cl)cc1 [Example 27, [5-(1H-Imidazol-4-yl)pentyl] 4-chlorobenzyl sulfone] | 0.661 | 11.7 | 14.1
O=S(=O)(/C=C/C=C/c1c[nH]cn1)NCc1ccc(Cl)cc1 [Example 41, (E,E)-N-(4-Chlorobenzyl)-4-(1H-imidazol-4-yl)-1-but-1,3-dienesulfonamide] | 1580 |  | 2630
O=S1(=O)C2C=CC(c3c[nH]cn3)CC2CN1Cc1ccc(Cl)cc1 (centres unmarked) [Example 42, 2-(4-Chlorohenzyl)-5-(1H-imidazol-4-yl)-2,3,3a, 4,5,7a-hexahydro-benzo[d]isothiazole 1,1-dioxide] | 1230 |  | 2090
